Where a name gives a salt, the structure may show the parent alone.
Assays:
human spermatozoa [1] = test: Acrosome assay, protocol 1 (3h incubation with compound, no agonist; flow cytometry, PNA); format: cell-based; conditions: assay 'Acrosome', incubation_time 3h
Description: The acrosome assays utilize a high-throughput flow cytometer (S1 Fig) to score for compounds inducing the acrosome reaction, using peanut agglutinin conjugated to a fluorescent dye to label the outer acrosomal membrane. We have developed two different screening protocols, named ‘acrosome 1’ and ‘acrosome 2’ (S1 Fig). […] This addition allowed measurement of inhibition of acrosome reaction (Fig 2B).
(§1) In both experimental protocols, 20 μL of pooled cells (at 1 M/mL concentration) were capacitated for 3 h in presence of compounds at 37°C and 5% CO2. In protocol a, cells were then stained with PNA-Alexa647 (ThermoFisher, 1 mg/mL, final dilution 1:1000) and Hoechst dye for 30 min at 37°C and 5% CO2, followed by 10 min fixation at RT by adding 20 μL of 4% paraformaldehyde (Sigma) in PBS. In mode b, a cocktail of progesterone, prostaglandin A and NH4Cl was added to all compound wells and incubated for an additional 1 h at 37°C and 5% CO2 to induce acrosome reaction. This was followed by fixation and staining protocol as for mode a. In both protocols fixatives and stains were removed and cells were resuspended in PBS, using a 405 platewasher. Plates were then measured on a Novocyte Advanteon high-throughput flow cytometer. Gating of data has been performed using the flow cytometer software to export counts of gated populations. The Acrosome 1 protocol using 3h incubation with compounds was run in 7 separate donor pools. The Acrosome 2 protocol using 3h incubation with compound followed by 1h stimulation of acrosome reaction was run in 5 separate donor pools.
(§2) For cell painting imaging data, plates of images were imported into OMERO [70]. Cell segmentation and feature extraction were performed using CellProfiler 3 [71] and using instructions from to normalize data. Timelapse data of motility assays was processed as previously described. Acrosome flow cytometry data was processed using NovoCyte Express (PerkinElmer), to gate out background debris, select for single cells and calculate percentage values of acrosome positive events. Sperm viability flow cytometry data was processed using iQue Forecyt (Satorius) to gate out background debris, select for single cells and calculate percentage values of propidium iodide positive events. For all sperm functional assays, data was normalized to DMSO control wells. Each plate had 16 DMSO wells. A median value of all 16 wells was used to calculated percentage change (pct_ch = ((value / DMSO_median) -1) * 100). For sperm viability we calculated fold-change (fc = 1 − (value / DMSO_median)). For each compound we calculated a p-value using a Welch’s t-test implemented in scipy (scipy.stats.ttest_ind) comparing a compounds effect to DMSO controls.

spermatozoa = tested on: spermatozoa; set-up: method as in per compound as listed in column References of Table 1; conditions: summaries of reported effects; ref per compound as listed in Table 1; cited from earlier work
human spermatozoa [2] = test: Motility assay (non-capacitating conditions); format: cell-based; conditions: for sperm motility and/or acrosome reacted cells (unsupervised clustering): cluster in Fig 3A heatmap, 30 μM
Description: (§3) To compare the effects of STB compounds on specific sperm functions (e.g. motility, acrosome reaction, viability), we screened them in multiple phenotypic functional assays described below. Each sperm function assay has been repeated in multiple donor pools (see Materials and methods), where each pool consists of cells donated from at least 3 different donors to address donor to donor variability. Each compound has been tested at two concentrations, 10 and 30 μM, and normalized to vehicle controls (DMSO, see Materials and methods). We have modified our assays from the previously published workflow by increasing incubation time and introducing conditions that support capacitation, which is a sperm maturation process required for fertilization. These changes expand the range of targets that we can explore in our assays. Our live-sperm-based high-throughput motility assays use an automated microscope to record short timelapse movies. These assays can be run in different protocols (S1 Fig). […] In this protocol, cells are incubated with compounds for 10 min prior to the first motility read-out. A second and third motility read-out were performed after 3h and 6h incubation. The second protocol, denoted ‘capacitation assay’, utilises conditions that support capacitation (S1 Fig). In this protocol, cells are kept in conditions supporting capacitation for 30 minutes prior to 30 minutes incubation with compound, followed by motility read-out. Both protocols allow sperm motility to be measured (0.5 sec time-lapse movies allow tracking of cells and calculation of sperm kinematics). In addition, the capacitation assay also scores hyperactivation (i.e. distinct movement patterns concomitant with capacitation which are crucial for fertilization) (Fig 2A).
Cells were rested for 1 h post density gradient centrifugation. 10 μL assay buffer was dispensed into assay ready plates, plates were put onto a shaker instrument for 30 seconds using 1,000 rpm, followed by a short pulse centrifugation. Plates were incubated for 15–30 mins at 37°C prior to addition of 10 μL of pooled cells (at 1 M/mL concentration). Plates were then incubated in a Yokogawa CV7000 microscope set at 37°C for 10 min prior to imaging. Imaging a 384-well plate requires ≤ 20 min using the following settings: 2 positions per well, 0.5 sec timelapse movies (3x binning; 11 ms exposure time, 22 ms interval time, […]). A second and a third timepoint was recorded after 3 h, and 6 h incubation at 37°C. Data has been processed as described in [8]. Assay results are from 5 separate donor pools.
as §2

human spermatozoa [3] = test: Authors' own unpublished screening campaigns ('This study'); format: cell-based
From the text: Because there is so little known about the molecular mechanisms that control sperm motility, we are unable to develop hypotheses of potential targets when new hits are identified in the sperm motility assay. However, it is now well-established that features derived from images in phenotypic assays, when compared to phenotypes measured on reference compounds, can accurately stratify genetic or chemical perturbations in phenotypic screens. […] Compound annotations are included in the dataset derived from the STB and indicate that Enzymes/Kinases, Receptors, Channels and Transporters are the most represented target of the STB compound classes (Fig 1D).
List of compounds included in Sperm Toolbox. Published Phenotypes are summaries of reported effects on sperm function related to other processes (e.g. spermatogenesis, liquefaction, or ejaculation).

LRRK2 kinase = conditions: annotated as; cited from earlier work
human spermatozoa [4] = test: Sperm viability assay (propidium iodide, flow cytometry); format: cell-based; conditions: 3h with compound
Description: In this assay, cells are incubated for 3h with compound in non-capacitating media, prior to viability assessment.
Cells were incubated with compounds for a total of 3h at 37°C. 20 min prior, propidium iodide was added (1.5 mM solution, Sigma, final dilution 1:2000). Plates were analysed using a Satorius iQue Screener with settings to allow for a sampling time of ≤30 min per 384-well plate. Gating of data has been performed using the flow cytometer software to export counts of gated populations. This assay was tested in 5 separate donor pools.
as §2

HepG2 = HepG2 cytotoxicity assay (resazurin based); format: cell-based; conditions: 70h incubation
human spermatozoa [5] = test: Capacitation assay (motility and hyperactivation under capacitating conditions); format: cell-based; conditions: cluster in Fig 3A; 30 min capacitation then 30 min with compound
Description: as §3
Cells were capacitated for 30 min at 37°C and 5% CO2. 10 μL assay buffer was dispensed into assay ready plates, plates were put onto a shaker instrument for 30 seconds using 1,000 rpm, followed by a short pulse centrifugation. Plates were incubated for 15–30 mins at 37°C and 5% CO2 prior to addition of 10 μL of pooled cells (at 1 M/mL concentration). This was followed by a 20 min compound incubation step at 37°C and 5% CO2. Plates were then incubated in our CV7000 microscope set at 37°C and 5% CO2 for 10 min prior to imaging. […]
For cell painting imaging data, plates of images were imported into OMERO [70]. […] A median value of all 16 wells was used to calculated percentage change (pct_ch = ((value / DMSO_median) -1) * 100). For sperm viability we calculated fold-change (fc = 1 − (value / DMSO_median)). For each compound we calculated a p-value using a Welch’s t-test implemented in scipy (scipy.stats.ttest_ind) comparing a compounds effect to DMSO controls.

HeLa = HeLa cell painting cytotoxicity assay; format: cell-based; conditions: 24h compound incubation
Description: The HeLa-based assay uses the cell painting assay [11], while the HepG2 assay utilizes a resazurin based viability read-out [64].
Cell were incubated with compounds for 24h.
• 10 μL of MitoTracker (Life Technologies, M22426, 1 mM stock in DMSO as recommended by the vendor) is added to 50 μL of media (1:2000 final dilution) • Phalloidin-Alexa594 (Life Technologies, A12381, 66 μM stock in methanol as recommended by the vendor, 1:500 final dilution) • WGA-Alexa594 (Life Technologies, W11262, 5 mg/mL stock, 1:250 final dilution) was used • DAPI (5 mg/mL stock; 1:1000 final dilution) was used to stain DNA • 20 μL of staining solution was used • PBS was used for washing steps
For cell painting imaging data, plates of images were imported into OMERO [70]. Cell segmentation and feature extraction were performed using CellProfiler 3 [71] and using instructions from [11] to normalize data.

human spermatozoa [6] = test: Acrosome assay, protocol 2 (3h with compound, then 1h agonist cocktail); format: cell-based; conditions: cluster in Fig 3A; 3h with compound then agonist mix
Description: The acrosome assays utilize a high-throughput flow cytometer (S1 Fig) to score for compounds inducing the acrosome reaction, using peanut agglutinin conjugated to a fluorescent dye to label the outer acrosomal membrane. We have developed two different screening protocols, named ‘acrosome 1’ and ‘acrosome 2’ (S1 Fig). Both protocols are capable of measuring induction of the acrosome reaction upon compound incubation. However, in the acrosome 2 assay, a mixture of physiological agonists of the acrosome reaction is used after cells have been incubated with compounds for 3h under conditions that support capacitation. This addition allowed measurement of inhibition of acrosome reaction (Fig 2B).
as §1
as §2, with “Sperm viability flow cytometry data was processed using iQue Forecyt (Satorius) to gate out background debris, select for single cells and calculate percentage values of propidium iodide positive events. For all sperm functional assays, data was normalized to DMSO control wells. Each plate had 16 DMSO wells.” left out

[7] = screening_concentration_M 9.99e-6
[8] = screening_concentration_M 2.991e-5

Which results are given for N=C(N)Nc1nc2ccccc2[nH]1 [2-Guanidinobenzimidazole]?
ch (percentage change vs DMSO median), Acrosome (human spermatozoa [1]; [7]): 0.2236%; ch (percentage change vs DMSO median), Acrosome (human spermatozoa [1]; [8]): 0.07571%; Published Phenotype (spermatozoa): Reduces sperm motility

Which “Published Phenotype” value (spermatozoa) does the source give for CNc1ccc2oc(C[C@H]3O[C@@]4(CC[C@H]3C)O[C@H]([C@H](C)C(=O)c3ccc[nH]3)[C@H](C)C[C@H]4C)nc2c1C(=O)O [A23187] here?
Its value is “Induces acrosome reaction”.

What about the “sperm motility and/or acrosome reacted cells (unsupervised clustering)” value (human spermatozoa [2]) of the same compound?
Its value is “significant reduction of sperm motility and/or increased amounts of acrosome reacted cells”.

For NC(=O)Nc1cc(-c2cccc(F)c2)sc1C(=O)N[C@H]1CCCNC1 [AZD 7762 hydrochloride], which “Phenotype observed in own screening campaigns (Published Phenotype, References 'This study')” value (“Phenotype observed” for short) (human spermatozoa [3]) is on record?
Its value is “Reduces sperm motility”.

With CCCCC(CC)CNC(=N)NC(=N)NCCCCCCNC(=N)NC(=N)NCC(CC)CCCC (stereo not drawn) [Alexidine dihydrochloride] as the compound, how does the “Published Phenotype” value (spermatozoa) read?
The value was “Reduces sperm motility”.

What about the “sperm motility and/or acrosome reacted cells (unsupervised clustering)” value (human spermatozoa [2]) of the same compound?
The value was “significant reduction of sperm motility and/or increased amounts of acrosome reacted cells”.

With CCOc1ccc(-c2nc(-c3cccc4c3CCC4NCCO)no2)cc1OCC (stereo not drawn) [CYM 5442 hydrchloride] as the compound, how does the “Phenotype observed” value (human spermatozoa [3]) read?
The value was “Reduces sperm motility; induces acrosome reaction”.

What does the source list for COc1cc(N2CCOCC2)ccc1Nc1ncc(F)c(Nc2ccccc2NS(C)(=O)=O)n1 [CZC 25146]?
sperm motility (human spermatozoa [2]): decrease sperm motility; LRRK2 inhibition (LRRK2 kinase): potent LRRK2 inhibitor

Which “effects on sperm viability” value (human spermatozoa [4]) does the source give for Nc1nc(Cl)nc2c1ncn2[C@@H]1O[C@H](CO)[C@@H](O)[C@@H]1F [Clofarabine] here?
The value was “do not show effects”.

What about the “Published Phenotype” value (spermatozoa) of the same compound?
The value was “Enhances sperm motility”.

What about the “general cytotoxicity (HepG2)” value (HepG2) of the same compound?
The value was “do not show effects”.

And the hyperactive motility (human spermatozoa [5])?
Its hyperactive motility is “significantly increased”.

And the “general cytotoxicity (HeLa)” value (HeLa)?
Its value is “do not show effects”.

And the “acrosome reaction (acrosome reacted cells)” value (“acrosome reaction” below) (human spermatozoa [6])?
The value was “significantly increased”.

For Clc1ccc(C(OCCN2CCCCC2)c2ccccc2)cc1 (stereo not drawn) [Cloperastine hydrochloride], which “Phenotype observed” value (human spermatozoa [3]) is on record?
The value was “Reduces sperm motility”.

Which “Phenotype observed” value (human spermatozoa [3]) does the source give for CCS(=O)(=O)Nc1ccc2c(c1)/C(=C(/Nc1ccc(CN3CCCCC3)cc1)c1ccccc1)C(=O)N2 [Hesperadin hydrochloride] here?
The value was “Reduces sperm motility”.

With C[C@]1(O)C[C@@H](c2nc(-c3ccc4ccc(-c5ccccc5)nc4c3)c3c(N)nccn32)C1 [Linsitinib] as the compound, how does the “effects on sperm viability” value (human spermatozoa [4]) read?
Its value is “do not show effects”.

And the “Published Phenotype” value (spermatozoa)?
Its value is “enhances sperm motility”.

What about the “general cytotoxicity (HepG2)” value (HepG2) of the same compound?
The value was “do not show effects”.

And the hyperactive motility (human spermatozoa [5])?
The hyperactive motility was “significantly increased”.

What about the “general cytotoxicity (HeLa)” value (HeLa) of the same compound?
The value was “do not show effects”.

What about the “acrosome reaction” value (human spermatozoa [6]) of the same compound?
Its value is “significantly increased”.

For Cc1ccc(S(=O)(=O)c2ccc([N+](=O)[O-])o2)cc1 [NSC 697923], which “Phenotype observed” value (human spermatozoa [3]) is on record?
The value was “Reduces sperm motility”.

For [O-][S+](c1ccccc1)c1ccc2nnnn2n1 (stereo not drawn) [Ro 106–9920], which “Phenotype observed” value (human spermatozoa [3]) is on record?
The value was “Reduces sperm motility”.

Which “Phenotype observed” value (human spermatozoa [3]) does the source give for CCCCCCCCOc1ccc(-c2noc([C@@H]3CCCN3C(=N)N)n2)cc1C(F)(F)F [SLM 6031434 hydrochloride] here?
The value was “Induces acrosome reaction”.

For COc1cc(C)c2c(Oc3cccc(C(F)(F)F)c3)c(OC)cc(NC(C)CCCN)c2n1 (stereo not drawn) [Tafenoquine], which “sperm motility and/or acrosome reacted cells (unsupervised clustering)” value (human spermatozoa [2]) is on record?
Its value is “significant reduction of sperm motility and/or increased amounts of acrosome reacted cells”.

And the “Phenotype observed” value (human spermatozoa [3])?
Its value is “Reduces sperm motility; induces acrosome reaction”.

Which “effects on sperm viability” value (human spermatozoa [4]) does the source give for COc1cc2c(cc1OC)-c1c/c(=N\c3c(C)cc(C)cc3C)n(C)c(=O)n1CC2 [Trequinsin hydrochloride] here?
The value was “do not show effects”.

What about the “Published Phenotype” value (spermatozoa) of the same compound?
Its value is “Increases hyperactivated sperm; increases penetration of sperm into viscous media, increases motility”.

What about the “general cytotoxicity (HepG2)” value (HepG2) of the same compound?
Its value is “do not show effects”.

And the hyperactive motility (human spermatozoa [5])?
The hyperactive motility was “significantly increased”.

And the “general cytotoxicity (HeLa)” value (HeLa)?
The value was “do not show effects”.

And the “acrosome reaction” value (human spermatozoa [6])?
Its value is “significantly increased”.

Which “ch (percentage change vs DMSO median), Acrosome” value (human spermatozoa [1]; [7]) does the source give for O=C(N1CCCCC1)N1CCCCC1Cc1ccccc1 (stereo not drawn) [compound 183] here?
The value was 0.955%.

And the “ch (percentage change vs DMSO median), Acrosome” value (human spermatozoa [1]; [8])?
The value was 1.376%.

And the “Published Phenotype” value (spermatozoa)?
Its value is “Reduces acrosome reaction”.

— paper PMC10878532, “Sperm Toolbox—A selection of small molecules to study human spermatozoa” (PLOS ONE, 2024)
